Test results: ChEMBL document CHEMBL3603814, “Heterocyclic chalcone activators of nuclear factor (erythroid-derived 2)-like 2 (Nrf2) with improved in vivo efficacy” (Bioorg Med Chem, 2015)
One block for each molecule: values may come before it. The source made the active and inactive calls. The calls are words filed in the database; no cut-off is given here.

Tests used:
[1] = biological target: T1, Nuclear factor erythroid 2-related factor 2 (Homo sapiens) (UniProt Q16236); assay: Activation of Nrf2 in human BEAS2B cells assessed as increase in HO1 gene expression at 10 uM incubated for 6 hrs by qPCR method; type: cell-based
T1 sequence (whole entry): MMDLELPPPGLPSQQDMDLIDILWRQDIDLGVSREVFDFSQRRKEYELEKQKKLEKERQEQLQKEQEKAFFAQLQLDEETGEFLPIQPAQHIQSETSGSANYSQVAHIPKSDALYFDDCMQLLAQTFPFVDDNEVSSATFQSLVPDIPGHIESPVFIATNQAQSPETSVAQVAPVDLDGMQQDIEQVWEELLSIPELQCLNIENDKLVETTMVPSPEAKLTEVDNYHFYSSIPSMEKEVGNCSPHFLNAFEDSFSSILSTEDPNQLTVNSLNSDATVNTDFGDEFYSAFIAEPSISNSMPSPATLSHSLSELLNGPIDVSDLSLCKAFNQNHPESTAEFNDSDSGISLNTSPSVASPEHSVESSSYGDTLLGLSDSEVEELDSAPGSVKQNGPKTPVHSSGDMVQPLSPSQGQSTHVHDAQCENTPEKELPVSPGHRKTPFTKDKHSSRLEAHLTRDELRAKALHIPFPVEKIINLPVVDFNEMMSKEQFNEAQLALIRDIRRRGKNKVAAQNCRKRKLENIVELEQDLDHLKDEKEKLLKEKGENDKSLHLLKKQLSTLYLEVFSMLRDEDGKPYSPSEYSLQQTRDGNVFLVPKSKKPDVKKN

[2] = biological target: T1, Nuclear factor erythroid 2-related factor 2 (Homo sapiens); assay: Activation of Nrf2 in human BEAS2B cells assessed as increase in HO1 gene expression at 5 uM incubated for 6 hrs by qPCR method; type: cell-based
Mus musculus [3] = assay: Increase in HO-1 gene expression in mouse lung at 400 mg/kg, po measured 6 hrs post dose by qPCR method; type: functional, organism-based
Mus musculus [4] = assay: Increase in HO-1 protein expression in mouse lung at 200 mg/kg, po measured 6 hrs post dose by ELISA method; type: functional, organism-based
Mus musculus [5] = assay: Increase in HO-1 protein expression in mouse lung at 400 mg/kg, po measured 6 hrs post dose by ELISA method; type: functional, organism-based
Mus musculus [6] = assay: Increase in HO-1 gene expression in mouse lung at 200 mg/kg, po measured 6 hrs post dose by qPCR method; type: functional, organism-based

Activity [1]: Active
Structure (SMILES): COC(=O)[C@]12CCC(C)(C)C[C@H]1[C@H]1C(=O)C=C3[C@@]4(C)C=C(C#N)C(=O)C(C)(C)[C@@H]4CC[C@@]3(C)[C@]1(C)CC2

Activity [2]: Active
Structure (SMILES): COc1ccccc1C(=O)/C=C/c1cnccc1C(F)(F)F

Activity [2]: Active
Structure (SMILES): COc1ccccc1C(=O)/C=C/c1ccncc1C(F)(F)F

Activity [2]: Active
Structure (SMILES): COc1cnccc1C(=O)/C=C/c1ccccc1C(F)(F)F

Activity [2]: Active
Structure (SMILES): COc1ccccc1C(=O)/C=C/c1ccccc1C(F)(F)F
Activity (Mus musculus [3]): Active | Activity (Mus musculus [4]): Active | Activity (Mus musculus [5]): Active | Activity (Mus musculus [6]): Active

Activity [2]: Active
Structure (SMILES): COc1ccncc1C(=O)/C=C/c1ccccc1C(F)(F)F

Activity [2]: Active
Structure (SMILES): COc1ccccc1C(=O)/C=C/c1ncccc1C(F)(F)F
Activity (Mus musculus [3]): Active | Activity (Mus musculus [5]): Active | Activity (Mus musculus [6]): Active
